Results reported in ChEMBL document CHEMBL1201862, “PubChem BioAssay data set” (2004).
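96-well plates; 48 h exposure; 5 concentrations. Endpoints by linear interpolation between flanking doses. Not reached: highest tested concentration assigned. GI50 marks 50% less growth.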 Calls of active or inactive are those of the source. Rule as the data show it: active = GI50 up to about 1.1 µM and inactive = higher.

Legend:
Test in all cases: DTP human tumour cell line panel, 48 h
[1] = tested on: SNB-75
[2] = tested on: HT-29
[3] = tested on: EKVX
[4] = tested on: OVCAR-3
[5] = tested on: ACHN
[6] = tested on: HOP-62
[7] = tested on: COLO 205
[8] = tested on: HOP-92
[9] = tested on: NCI-H226
[10] = tested on: UACC-257
[11] = tested on: HL-60
[12] = tested on: MDA-MB-231
[13] = tested on: KM12
[14] = tested on: Hs-578T
[15] = tested on: A498
[16] = tested on: SN12C
[17] = tested on: U-251
[18] = tested on: SK-OV-3
[19] = tested on: IGROV-1
[20] = tested on: RPMI-8226

Measured: GI50

CCCCCCCCCCCC(=O)OCC(O)CO (stereo unspecified) [GLYCEROL MONOLAURATE]
inactive: [1] > 100 µM | [2] 31.2 µM | [3] > 100 µM | [4] 76.9 µM | [5] > 100 µM | [6] > 100 µM | [7] > 100 µM | [8] > 100 µM | [9] > 100 µM | [10] > 100 µM | [11] 12.9 µM | [12] > 100 µM | [13] 20.4 µM | [14] > 100 µM | [15] > 100 µM | [16] > 100 µM | [17] 71.3 µM | [18] > 100 µM

CC1(C)[C@@H]2CC[C@]1(C)[C@H](OC(=O)CSC#N)C2
inactive: [1] > 100 µM | [2] > 100 µM | [3] > 100 µM | [4] 30.8 µM | [5] > 100 µM | [6] > 100 µM | [7] > 100 µM | [8] > 100 µM | [9] > 100 µM | [10] > 100 µM | [12] > 100 µM | [13] > 100 µM | [19] > 100 µM | [14] > 100 µM | [15] > 100 µM | [16] > 100 µM | [17] > 100 µM | [18] > 100 µM

COC(=O)C1=Cc2cc(OC)c(O)cc2[C@@H](c2ccc(O)c(OC)c2)[C@@H]1C(=O)OC
inactive: [1] 58.1 µM | [2] > 100 µM | [3] > 100 µM | [4] > 100 µM | [5] > 100 µM | [6] > 100 µM | [7] > 100 µM | [8] 53.7 µM | [9] > 100 µM | [10] > 100 µM | [11] > 100 µM | [12] 39.2 µM | [13] 37.6 µM | [19] > 100 µM | [14] 78.9 µM | [15] > 100 µM | [16] > 100 µM | [17] > 100 µM | [20] > 100 µM

CO[P@]1(=O)O[C@@H](c2ccccc2)[C@H](O)[C@]1(O)c1ccccc1
inactive: [1] > 100 µM | [2] > 100 µM | [3] > 100 µM | [4] > 100 µM | [5] > 100 µM | [7] > 100 µM | [8] > 100 µM | [9] > 100 µM | [10] > 100 µM | [11] > 100 µM | [12] > 100 µM | [13] > 100 µM | [19] > 100 µM | [14] > 100 µM | [15] > 100 µM | [16] > 100 µM | [17] > 100 µM | [18] > 100 µM | [20] > 100 µM

O=C1CCCn2c(nc3ccccc32)N1
inactive: [1] > 100 µM | [2] > 100 µM | [3] > 100 µM | [4] > 100 µM | [5] > 100 µM | [6] > 100 µM | [7] > 100 µM | [8] > 100 µM | [9] > 100 µM | [10] > 100 µM | [12] > 100 µM | [13] > 100 µM | [19] > 100 µM | [14] > 100 µM | [15] > 100 µM | [17] > 100 µM | [18] > 100 µM | [20] > 100 µM

O=[N+]([O-])c1ccc(/C(=C\c2ccccc2)Cn2ccnc2)cc1
inactive: [1] 27.4 µM | [2] 14 µM | [3] 43.9 µM | [5] 29.8 µM | [6] 54.1 µM | [7] 15 µM | [8] 18.9 µM | [9] 32.4 µM | [10] 37.6 µM | [11] 19 µM | [12] 13.1 µM | [13] 33 µM | [19] 24.6 µM | [14] 29.1 µM | [15] 20.9 µM | [16] 35 µM | [17] 33.3 µM | [18] 38.4 µM | [20] 28.9 µM

Cn1c(=O)c2c(ncn2CCSS(=O)(=O)O)n(C)c1=O
inactive: [1] 38.5 µM | [2] 99.5 µM | [3] 72.6 µM | [4] > 100 µM | [5] > 100 µM | [6] 86.9 µM | [7] > 100 µM | [8] > 100 µM | [9] > 100 µM | [10] > 100 µM | [12] 45.9 µM | [13] > 100 µM | [19] > 100 µM | [14] 74.5 µM | [15] > 100 µM | [16] > 100 µM | [17] 45.8 µM | [18] > 100 µM | [20] > 100 µM

O=C1c2ccccc2C(=O)c2c(NCCCN3CCOCC3)ccc(NCCCN3CCOCC3)c21
inactive: [1] 2.29 µM | [2] 1.14 µM | [3] 11 µM | [4] 4.07 µM | [5] 2.07 µM | [6] 2.12 µM | [8] 1.89 µM | [9] 6.59 µM | [10] 2.96 µM | [11] 2.45 µM | [12] 3.08 µM | [13] 3.12 µM | [19] 4.69 µM | [14] 5.45 µM | [15] 12 µM | [16] 2.18 µM | [17] 3.24 µM | [20] 2 µM

Cc1ccc(-n2cc(-c3ccc(Cl)cc3)c3c(=N)n(N)cnc32)cc1
inactive: [1] 12.6 µM | [2] 8.24 µM | [3] 16.4 µM | [4] 13.5 µM | [5] 16.2 µM | [6] 14.2 µM | [7] 8.2 µM | [8] 9.95 µM | [9] 21 µM | [10] 9.93 µM | [11] 7.83 µM | [12] 12.6 µM | [19] 12 µM | [14] 3.71 µM | [15] 15.9 µM | [16] 16 µM | [17] 10.5 µM | [18] 17.4 µM

Cc1cc(NS(=O)(=O)c2ccc(NO)cc2)no1
inactive: [1] 43.7 µM | [2] 41.3 µM | [3] > 100 µM | [4] > 100 µM | [5] > 100 µM | [6] > 100 µM | [7] > 100 µM | [8] > 100 µM | [9] > 100 µM | [10] > 100 µM | [11] > 100 µM | [12] 34.7 µM | [13] 63.4 µM | [19] > 100 µM | [14] > 100 µM | [15] > 100 µM | [16] 19.5 µM | [18] > 100 µM

O/N=C1/COC(C(F)(F)F)(C(F)(F)F)C1
inactive: [1] > 100 µM | [2] > 100 µM | [3] > 100 µM | [4] > 100 µM | [5] > 100 µM | [6] > 100 µM | [7] > 100 µM | [8] > 100 µM | [9] > 100 µM | [10] > 100 µM | [12] > 100 µM | [13] > 100 µM | [19] > 100 µM | [14] > 100 µM | [15] > 100 µM | [16] > 100 µM | [17] > 100 µM | [18] > 100 µM | [20] > 100 µM

COc1ccc(N2C=Nn3c(nc4sc(C)c(C)c4c3=O)C2)cc1
inactive: [1] > 100 µM | [2] > 100 µM | [3] > 100 µM | [5] > 100 µM | [6] 28.6 µM | [7] > 100 µM | [8] > 100 µM | [9] > 100 µM | [10] > 100 µM | [12] > 100 µM | [13] > 100 µM | [19] > 100 µM | [14] > 100 µM | [15] 29.4 µM | [16] > 100 µM | [17] > 100 µM | [18] > 100 µM | [20] > 100 µM

C=C(CC[C@@H](C(=O)O)[C@H]1[C@H](O)C[C@@]2(C)C3=CC[C@@H](C(=C)C)[C@](C)(CCC(=O)O)C3=CC[C@]12C)C(C)C [PORICOIC ACID A]
inactive: [1] 20.4 µM | [2] 17.6 µM | [3] 17.6 µM | [4] 19.1 µM | [5] 17.6 µM | [7] 23.1 µM | [8] 16.6 µM | [9] 19.7 µM | [10] 16.4 µM | [11] 15.9 µM | [12] 20.8 µM | [13] 18.3 µM | [14] 22.6 µM | [15] 23.6 µM | [16] 16.7 µM | [17] 18 µM | [18] 18 µM

O=C(CCN1CCOCC1)c1ccc(Oc2ccc(F)cc2)cc1
inactive: [1] 19.6 µM | [2] 18.7 µM | [3] 19 µM | [4] 22.3 µM | [5] 17.9 µM | [6] 50.2 µM | [7] 23 µM | [8] 28.1 µM | [9] 26 µM | [10] 17.7 µM | [11] 35.5 µM | [12] 19.6 µM | [13] 17.4 µM | [19] 19.5 µM | [14] 19.9 µM | [15] > 100 µM | [16] 30.9 µM | [17] 53.2 µM | [18] > 100 µM

CN(C)Cc1cc(/N=N/c2ccccc2)ccc1O
inactive: [1] 10 µM | [2] 32.4 µM | [3] 40 µM | [4] 68.2 µM | [5] 29 µM | [6] 39.7 µM | [7] 53 µM | [8] 23.2 µM | [9] 95.9 µM | [10] 25.6 µM | [11] 41.5 µM | [12] 32.9 µM | [13] 34.6 µM | [19] 32.5 µM | [14] 33 µM | [15] 25.1 µM | [16] > 100 µM | [17] > 100 µM | [20] 56 µM
